{"source": "patent US20110142766A1", "about": "“Effervescent Multi-Vitamin Formulation and Methods of Use Thereof” (priority 2009, published 2011)", "origin": "cited, not measured here", "key": {"vision loss": {"test_system": "vision loss", "conditions": "group treated with zinc compared with a group treated with a placebo"}, "[1]": {"test_system": "age-related macular degeneration"}}, "data": [{"smiles": "[Zn]", "note": "[zinc]", "values": [{"measurement": "reduction in vision loss", "setting": "vision loss", "value": "statistically significant reduction in vision loss"}, {"measurement": "reduction of risk of (central) vision loss", "setting": "[1]; people at high risk for developing advanced AMD", "value": "about 11%"}, {"measurement": "reduction of risk of developing advanced stages of AMD", "setting": "[1]; people at high risk for developing advanced AMD (intermediate AMD, or advanced AMD in one eye only)", "value": "about 21%"}]}]}
